Measurements: patent US9023800B2, “Peptides for the treatment of oxidative stress related disorders” (Ramot at Tel-Aviv University Ltd., priority 2009, dated 2015)

Legend:
NSC-34 cells [1] = assay: Hydrogen peroxide toxicity in cellular model of ALS; assay type: cell-based; details: NSC-34 pretreated vs saline before hydrogen peroxide (FIG. 12A)
Source text: (§1) NSC-34 cells were used as a cellular model for ALS. Increasing doses of hydrogen peroxide and SIN-I, an NO donor, which are implicated in the pathogenesis of ALS were used.

NSC-34 cells [2] = assay: SIN-I toxicity in cellular model of ALS; assay type: cell-based; details: NSC-34 pretreated vs saline before SIN-I (FIG. 12B)
Protocol: (§2) Neuroblastoma cells are contacted with hydrogen peroxide (H2O2) (0-1 mM; Sigma, Chemicals Co., St. Louis, Mo., USA), 6-hydroxydopamine (0-100 μM; Sigma, Chemicals Co., St. Louis, Mo., USA), dopamine (0-500 μM; Sigma, Chemicals Co., St. Louis, Mo., USA) and 3-(4-morpholinyl)-sydnonimine (SIN-I) (0-5 mM; Sigma), (which is a peroxynitrite free radical donor), in order to produce ROS formation.
as §1

MPTP Parkinson's model = MPTP Parkinson's model in mice; assay type: in vivo; details: subcutaneous 0.4 mM; MPTP 20 mg/kg i.p. 5 consecutive days; 18 days later (FIG. 17)
Protocol: In order to generate an animal model for Parkinson's disease, mice were treated with 1-methyl-4-phenyl-1,2,3,6-tetrahydropyridine (MPTP). 5 mice (C57/bl) were injected for 5 consecutive days with 20 mg/kg MPTP (i.p.) in the presence and absence of the DJ-1 related peptide (0.4 mM subcutaneous; SEQ ID NO: 25). 18 days later, the mice were sacrificed and the dopamine level, in the two hemispheres was measured by HPLC.

[3] = system: human neuroblastoma SH-SY5Y cells; assay: Serum deprivation in neuroblastoma cells; assay type: cell-based; details: during serum deprivation, vs saline (FIG. 4A)
Protocol: FIG. 4A is a bar graph illustrating that DJ-1-related peptides are protective against serum deprivation.
(§3) Human neuroblastoma SH-SY5Y cells are obtained from the American tissue Type Culture Collection (ATCC, Rockville, USA). Cells are grown under sterile conditions as monolayer in DMEM medium supplemented with 10% heat-inactivated fetal calf serum (FCS), gentamicin ([…]), and glutamine (5 mM) in a 5% CO2 humidified atmosphere at 37° C. The medium is routinely changed every 4 days, and cells are passaged every 8 days. All experiments are performed on cells which are near confluence.

[4] = system: neuronally differentiated murine neural stem cells; assay: Oxidative insult (H2O2) in neuronally differentiated neural stem cells; assay type: cell-based; details: pretreated vs saline before exposure to hydrogen peroxide (FIG. 6)
Protocol: Neural progenitor/stem cells are isolated from murine cortex of postnatal c57/bl mice and cultured as neurospheres. Neural and astroglial differentiation are induced.
Susceptibility of differentiated and undifferentiated neural progenitor/stem cells to oxidative and toxic insults are determined with and without prior pretreatment with DJ-1 related peptides.
Susceptibility of differentiated and undifferentiated neural progenitor/stem cells to oxidative and toxic insults was determined with and without prior pretreatment with DJ-1 related peptides, as illustrated in FIG. 6.

[5] = system: human neuroblastoma SH-SY5Y cells; assay: 6-hydroxydopamine toxicity in neuroblastoma cells; assay type: cell-based
Protocol: as §3, with “confluence. […]” for “confluence.”
(§4) Cells are seeded in 96-wells plates at the concentration of 5000 cells per well and allowed to attach over night. […] Alamar blue fluorescence is measured by FLUOstar spectrofluorometer at the excitation wavelength of 544 nm and the emission wavelength of 590 nm. […]
(§5) LDH released by damaged cells into the cell culture supernatant is determined using LDH cytotoxicity detection kit (Clontech laboratories, CA, USA), according to the manufacturer's instructions. […] The percentage of dead cells is calculated by the following formula of the absorbance values: (triplicate absorbance−low control)/(maximum absorption−low control)×100.
Hoechst 33342 enters cells with intact or damaged membranes and stains DNA in blue, thereby allowing evaluation of cell number in each well as well. […] Excitation is performed at 346 nm and emission wavelength is determined at 460 nm. […]

HaCaT cells = assay: Protection against UV radiation in keratinocytes; assay type: cell-based, human; details: HaCaT pretreated vs saline before UV radiation (FIG. 14)
Protocol: The immortalized human HaCaT keratinocyte cells are used to test DJ-1 related peptides ability to protect against UV radiation induced injury. Cells are maintained in minimal essential medium containing 0.075 mM Ca^2+ (MEM-75) and 10% FCS in 5 cm Petri-dishes and subcultured every 3-4 days.
Cultured keratinocytes were used to examine the ability of DJ-1 related peptides to protect against the damaging effects of UV radiation.

[6] = system: human neuroblastoma SH-SY5Y cells; assay: Hydrogen peroxide (H2O2) oxidative stress in neuroblastoma cells; assay type: cell-based
Protocol: as §3, §2
Several methods are used in order to determine the toxic effects of oxidative insults, neurotoxins and dopamine on cellular metabolic activity, mitochondrial activity and cell viability.
as §4, §5
Hoechst 33342 enters cells with intact or damaged membranes and stains DNA in blue, thereby allowing evaluation of cell number in each well as well. A FLUOstar spectrofluorometer microplate reader may be used in order to evaluate the cell number in each well following exposure to different doses of various toxins. Excitation is performed at 346 nm and emission wavelength is determined at 460 nm. […]

[7] = system: human neuroblastoma SH-SY5Y cells; assay: Cell proliferation by [3H]thymidine incorporation; assay type: cell-based; details: exposure to the peptides (FIG. 1D)
Protocol: FIGS. 1A-F are bar graphs illustrating that DJ-1-related peptide TAT 2a (SEQ ID NO: 24) is protective in vitro against oxidative and toxic insults. […] Cell proliferation was measured by quantifying [^3H]thymidine incorporation. […] The presented experiments were done on human neuroblastoma SH-SY5Y cells, and repeated at least 3 times. *p<0.05, as compared to control cells treated with vehicle and exposed to the same toxic insult.
as §3

[8] = system: human neuroblastoma SH-SY5Y cells; assay: Dopamine toxicity in neuroblastoma cells; assay type: cell-based; details: SH-SY5Y (FIG. 1F)
Protocol: as §3, §2
Cells are seeded in 96-wells plates at the concentration of 5000 cells per well and allowed to attach over night. On the following day, the cells are exposed to increasing doses of dopamine (0-500 uM) for 4 hours in serum free medium. Alamar blue is a non toxic reagent which incorporates a redox indicator that changes color in response to metabolic activity. […] Alamar blue fluorescence is measured by FLUOstar spectrofluorometer at the excitation wavelength of 544 nm and the emission wavelength of 590 nm. […]

[9] = system: primary mixed neuronal and glial cultures obtained from cortex of postnatal wild type C57/bl mice; assay: Hydrogen peroxide toxicity in primary cultures; assay type: cell-based; details: increasing concentrations of hydrogen peroxide (FIGS. 5A-B)
Protocol: (§6) Murine neuronal and astrocytes primary cultures derived from cortical tissues of post natal c57/bl mice are prepared and used in order to examine protective potential of DJ-1 related peptides.
(§7) T protective effects of DJ-1 peptides on primary cultures, and on differentiated and undifferentiated neural stem cells obtained from C57/bl mice brains were evaluated. […] Specifically, FIGS. 5A-B illustrate protection of Tat 2A against oxidative and toxic injuries in primary mixed neuronal and astrocytes cultures from post natal mice brains. Neural progenitor/stem cells were isolated from murine cortex of postnatal c57/bl mice and cultured as neuro spheres. Neural and astroglial differentiation were induced.

[10] = system: primary mixed neuronal and glial cultures obtained from cortex of postnatal wild type C57/bl mice; assay: 6-hydroxydopamine toxicity in primary cultures; assay type: cell-based; details: increasing concentrations of 6-hydroxydopamine (FIGS. 5A-B)
Protocol: as §6, §7

[11] = system: neuroblastoma cells overexpressing A53T alpha-synuclein; assay: Hydrogen peroxide toxicity in cells overexpressing mutant alpha-synuclein; assay type: cell-based, human; details: A53T alpha-synuclein cells exposed to hydrogen peroxide (FIG. 10)
Protocol: The coding region of human wild-type or A53T mutant alpha-synuclein cDNA is subcloned into pcDNA3.1-plasmid (BD Biosciences, Clontech). In order to achieve overexpression of A53T mutant alpha-synuclein, SH-SY5Y neuroblastoma cells are stably transfected with the plasmid containing A53T mutant alpha-synuclein. Transfections are performed using the lipofectamine 2000 reagent (Invitrogen, Carlsbad, Calif.). Selection of transfected cells is performed by treating the cells with lethal doses of geniticin (G-418). Naive neuroblastoma cells as well as cells stably transfected with the empty vector are used as controls.
Stable transfections are verified by measuring alpha-synuclein mRNA and protein levels using real-time PCR and Western blotting.
A53T mutant alpha-synuclein is one of the causes for genetically inherited Parkinson's Disease. Neuroblastoma cells overexpressing mutated alpha-synuclein were used as a cellular platform for Parkinson's Disease. In order to achieve overexpression of A53T mutant alpha-synuclein, SH-SY5Y neuroblastoma cells were stably transfected with the plasmid containing A53T mutant alpha-synuclein.

[12] = system: 6-hydroxydopamine hemiparkinsonian mice model; assay: In vivo 6-hydroxydopamine induced hemiparkinsonian mice model

“YGRKKRRTVIPVDVMRRAGI (Artificial seqence) [TAT 2b]” was tested, and the viability (NSC-34 cells [1]) was “Increased viability”, the viability (NSC-34 cells [2]) was “Increased viability” and the “protection against MPTP Parkinson's model (dopamine level by HPLC)” value (MPTP Parkinson's model) was “protects”.

In the case of “KGAEEMETVIPV (Artificial seqence) [short 2a]”, the viability [3] was “Increased viability”.

With GAEEME (Artificial seqence) [peptide I] the viability [3] was “Increased viability” and the viability [4] was “Increased viability”.

For “VDVMRRAGI (Artificial seqence) [peptide II]”, the viability ([5]; SH-SY5Y pretreated vs saline before 6-hydroxydopamine (FIG. 3)) was “Increased viability”, the viability [3] was “Increased viability” and the viability [4] was “Increased viability”. For the same substance, the metabolic activities (HaCaT cells) was “Increased metabolic activities”.

For “YGRKKRRKGAEEMETVIPVD (Artificial seqence) [TAT 2a]”, the cell viability ([6]; exposure to H2O2, vs saline alone (FIG. 1A)) was “Increased cell viability”, the mitochondrial damage ([6]; exposure to H2O2, vs saline alone (FIG. 1B)) was “decreased mitochondrial damage” and the metabolic activity ([6]; exposure to H2O2, vs saline alone (FIG. 1C)) was “increased metabolic activity”. The “cell proliferation ([3H]thymidine incorporation)” value [7] was “no increased cell proliferation”, the “protection against 6-hydroxydopamine toxicity” value ([5]; SH-SY5Y (FIG. 1E)) was “Protection” and the “protection against dopamine toxicity” value [8] was “Protection”. The “protection against H2O2 toxicity” value [9] was “protection”, the “protection against 6-hydroxydopamine toxicity” value [10] was “protection” and the viability [11] was “Significantly increased viability”. The viability (NSC-34 cells [1]) was “Increased viability”, the viability (NSC-34 cells [2]) was “Increased viability” and the metabolic activities (HaCaT cells) was “Increased metabolic activities”. The “fraction of the lesioned mice that rotated in response to amphetamine injection” value ([12]; 50 μg IV 4 hours before 6-hydroxydopamine lesioning (FIG. 16B)) was “smaller fraction”, the amphetamine-induced rotations ([12]; 50 μg IV 4 hours before 6-hydroxydopamine lesioning, vs saline (FIG. 16A)) was “Significantly reduced” and the “fraction of the lesioned mice that rotated in response to amphetamine injection” value ([12]; intrastriatal 2 μl of 100 μM one hour before lesioning (FIG. 15B)) was “smaller fraction”. For the same substance, the amphetamine-induced rotations ([12]; intrastriatal 2 μl of 100 μM one hour before lesioning, 2 and 4 weeks after lesioning, vs saline (FIG. 15A)) was “Significantly reduced”, the “accelerating Rotarod examination” value ([12]; intrastriatal peptide vs saline-treated controls, p=0.02) was “significant difference” and the “6-hydroxydopamine-induced loss of tyrosine hydroxylase (TH) staining in the lesioned striatum” value ([12]; intrastriatal peptide, immunohistochemical staining) was “reversed”.
